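Exposure lasted 48 hours, with cells grown in 96-well plates and compounds tested at five concentrations. TGI marks complete inhibition of growth.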 Some results are limits rather than exact numbers.

Test systems include 786-0 renal; HCC-2998 colon; HCT-116 colon; NCI-H226 lung; SF-295 CNS; SNB-19 CNS; UACC-257 melanoma; OVCAR-8 ovarian; SN12C renal; A498 renal.
What all share (assay): growth of human tumour cells (NCI), 48 h

For `O=C(Cl)c1cc([N+](=O)[O-])cc([N+](=O)[O-])c1`, the TGI in the assay on 786-0 renal, in the assay on HCC-2998 colon, with HCT-116 colon, in the assay with NCI-H226 lung, in the assay on SF-295 CNS and in the assay with SNB-19 CNS was more than 100 µM throughout. Moreover, the TGI in the assay with UACC-257 melanoma is more than 100 µM.
As to `COc1cc(/C=C/C(=O)C(C)(C)C)cc(OC)c1OC`, the TGI with 786-0 renal was more than 100 µM; with HCC-2998 colon it was more than 100 µM; in the assay on HCT-116 colon it was more than 100 µM; in the assay on NCI-H226 lung it was 97.9 µM; in the assay on OVCAR-8 ovarian, more than 100 µM; in the assay with SF-295 CNS, more than 100 µM. Besides, the TGI in the assay on SN12C renal, in the assay with SNB-19 CNS and in the assay on UACC-257 melanoma was more than 100 µM each time.
Consider `Cc1c2cccc-2c(N(C)C)cc2c1[nH]c1ccccc12`, for which the TGI with 786-0 renal turned out to be 12 µM; with A498 renal, 37.8 µM; in the assay on HCT-116 colon, 12.6 µM; in the assay on NCI-H226 lung, 21.8 µM; in the assay with OVCAR-8 ovarian, 10.3 µM; in the assay on SF-295 CNS, 25.3 µM. Besides, the results for the TGI in the assay with SN12C renal, with SNB-19 CNS and in the assay with UACC-257 melanoma were 20.2 µM, 22.1 µM and 26.4 µM, respectively.
On to `COc1cc(C=Nc2ccc(Oc3ccc(Cl)cc3)c(Cl)c2)cc(OC)c1OC`, for which the TGI came to 29.6 µM in the assay with 786-0 renal; 40.3 µM in the assay on HCC-2998 colon; 29.2 µM with HCT-116 colon; 80.9 µM in the assay with NCI-H226 lung; 62.1 µM with OVCAR-8 ovarian; 37.3 µM with SF-295 CNS. Moreover, the TGI with SN12C renal is 40.3 µM; in the assay on SNB-19 CNS it was 49.1 µM; with UACC-257 melanoma it was 47.7 µM.
As for `CC(C)(Oc1ccc(C2C[C@H]2Cl)cc1)C(=O)O` (stereo partly specified), the TGI in the assay with 786-0 renal, in the assay with A498 renal, with HCT-116 colon, in the assay with SF-295 CNS, in the assay on SN12C renal and in the assay with SNB-19 CNS was more than 100 µM in each case. This compound also registered a TGI with UACC-257 melanoma of more than 100 µM.
As for `C[N+](C)(C)CC(=O)N/N=C(\C(=O)Nc1ccc(Cl)cc1)C1C(=O)N(c2ccccc2)N=C1N` (stereo unspecified), the TGI with 786-0 renal, in the assay with A498 renal, with HCC-2998 colon, in the assay on HCT-116 colon, with OVCAR-8 ovarian and with SN12C renal was more than 100 µM each time. The TGI in the assay on SNB-19 CNS and in the assay with UACC-257 melanoma was more than 100 µM each time.
As for `Cc1ccc(-n2cc(-c3ccc(Cl)cc3)c3c(NNC(=S)NCc4ccccc4)ncnc32)cc1`, the TGI was 51.1 µM in the assay with 786-0 renal; 82.1 µM with A498 renal; 16.8 µM in the assay on HCT-116 colon; more than 100 µM in the assay with NCI-H226 lung; 69.3 µM with OVCAR-8 ovarian; 55.4 µM with SF-295 CNS. Moreover, the TGI was 24.3 µM in the assay with SN12C renal, more than 100 µM in the assay on SNB-19 CNS and 48 µM in the assay on UACC-257 melanoma.
Regarding `COc1cc(NS(C)(=O)=O)ccc1N1Cc2cnc3ccc4[nH]ccc1c4c23`, the TGI in the assay with 786-0 renal is more than 100 µM; in the assay on A498 renal, more than 100 µM; with HCT-116 colon, more than 100 µM; in the assay with NCI-H226 lung, 93.5 µM; in the assay with OVCAR-8 ovarian it was more than 100 µM; in the assay with SF-295 CNS, more than 100 µM. For the same compound, the TGI with SN12C renal is 66.6 µM; in the assay with SNB-19 CNS it was more than 100 µM; with UACC-257 melanoma, more than 100 µM.
For the compound `OB1OCc2ccccc21`, the TGI in the assay on 786-0 renal is more than 100 µM; in the assay on A498 renal, more than 100 µM; in the assay on HCT-116 colon, more than 100 µM; in the assay on NCI-H226 lung, more than 100 µM; with OVCAR-8 ovarian, more than 100 µM; in the assay on SF-295 CNS, 40.9 µM. In addition, the TGI in the assay with SN12C renal, in the assay on SNB-19 CNS and in the assay on UACC-257 melanoma was more than 100 µM throughout.
For the compound `N#C/C(=C/NC(=S)Nc1ccc(S(N)(=O)=O)cc1)C(N)=O`, the TGI with 786-0 renal, with A498 renal, in the assay with HCC-2998 colon, in the assay with HCT-116 colon, in the assay with OVCAR-8 ovarian and with SF-295 CNS was more than 100 µM each time. Further, the TGI in the assay on SN12C renal and with UACC-257 melanoma was more than 100 µM each time.
Regarding `CCOC(=O)C1C(=O)C=C(c2cc(C)ccc2O)CC1c1cccc(Br)c1` (stereo unspecified), the TGI came out at 39.8 µM in the assay on 786-0 renal; 34.6 µM in the assay on HCC-2998 colon; 40.7 µM with HCT-116 colon; 37.3 µM in the assay on NCI-H226 lung; 92.7 µM in the assay on OVCAR-8 ovarian; 35.5 µM with SF-295 CNS. Also, the TGI in the assay with SN12C renal amounted to 33.1 µM; with SNB-19 CNS, 32.5 µM; in the assay on UACC-257 melanoma, 38 µM.
Turning to `O=C(C(=O)n1ccc2ccccc21)c1c[nH]c2ccccc12`, the TGI with 786-0 renal, in the assay on HCC-2998 colon, in the assay on HCT-116 colon, with NCI-H226 lung, with OVCAR-8 ovarian and in the assay with SF-295 CNS was more than 10 µM each time. Moreover, the TGI with SN12C renal, in the assay with SNB-19 CNS and in the assay on UACC-257 melanoma was more than 10 µM each time.
Regarding `CC(C)(C)OC(=O)NCCNC(=O)OCc1ccccc1`, the TGI in the assay on 786-0 renal, in the assay on HCC-2998 colon, in the assay with NCI-H226 lung, in the assay on OVCAR-8 ovarian, in the assay with SF-295 CNS and with SN12C renal was more than 100 µM throughout. Also, the TGI with SNB-19 CNS and in the assay on UACC-257 melanoma was more than 100 µM each time.
Regarding `COc1ccc2[nH]c3c(C)c4ccnc(NCCCN(C)CCCNC(=O)NCCCN(C)CCCNc5nccc6c(C)c7[nH]c8ccc(OC)cc8c7c(C)c56)c4c(C)c3c2c1`, the TGI in the assay on 786-0 renal worked out at 1.2 µM; in the assay with A498 renal, 5 µM; in the assay on HCC-2998 colon, 1.13 µM; in the assay with HCT-116 colon, 5.48 µM; in the assay on SN12C renal, 2.91 µM; with SNB-19 CNS, 2.13 µM. This compound also yielded a TGI in the assay on UACC-257 melanoma of more than 14.3 µM.
Take `C[C@H]1C(=O)C2=C[C@H]1CCC(=O)[C@]1(C)CCCC(C)(C)[C@H]1C[C@H]2O`: the TGI with 786-0 renal is 32.5 µM; with A498 renal, more than 100 µM; in the assay with HCT-116 colon, more than 100 µM; with NCI-H226 lung it was 84.3 µM; with OVCAR-8 ovarian it was 35 µM; in the assay with SF-295 CNS it was more than 100 µM. Besides, the TGI was 94.2 µM in the assay on SN12C renal, more than 100 µM in the assay with SNB-19 CNS and 83.6 µM with UACC-257 melanoma.

Source of the values: PubChem BioAssay (NCI).
